According to patent US12252524B2, “GIP/GLP1 co-agonist compounds” (Eli Lilly and Company, priority 2018, dated 2025):
Like-named read-outs stand apart in the source and are kept apart here. Numbered stars: 1 amine (or outer) side, 2 acyl side, 3 side chain; on linkers, the order of the positions; unused ones are H or OH. Square brackets hold non-standard residues; d marks the D form. Side chains are listed from the residue outwards. Peptide text beside a SMILES is read from it. * marks the point of attachment. C20 diacid = O=C(O)CCCCCCCCCCCCCCCCCCC(=O)*; C18 diacid = O=C(O)CCCCCCCCCCCCCCCCC(=O)*; αMePhe(2-F) = C[C@](N)(Cc1ccccc1F)C(=O)O; γGlu = O=C(O)[C@H](CCC(=O)[*:2])N[*:1]; αMeF = C[C@](N)(Cc1ccccc1)C(=O)O; αMeL = CC(C)C[C@](C)(N)C(=O)O; Orn = NCCC[C@H](N)C(=O)O; AEEA = NCCOCCOCC(=O)O; Aib = CC(C)(N)C(=O)O

Tests used:
[1] = target: human GLP-1 receptor (GLP-1R) (Homo sapiens, UniProt P43220); experiment: cAMP pharmacological functional assay in presence of casein, hGLP-1R; assay type: cell-based
Sequence of human GLP-1 receptor (GLP-1R) (P43220 24-463): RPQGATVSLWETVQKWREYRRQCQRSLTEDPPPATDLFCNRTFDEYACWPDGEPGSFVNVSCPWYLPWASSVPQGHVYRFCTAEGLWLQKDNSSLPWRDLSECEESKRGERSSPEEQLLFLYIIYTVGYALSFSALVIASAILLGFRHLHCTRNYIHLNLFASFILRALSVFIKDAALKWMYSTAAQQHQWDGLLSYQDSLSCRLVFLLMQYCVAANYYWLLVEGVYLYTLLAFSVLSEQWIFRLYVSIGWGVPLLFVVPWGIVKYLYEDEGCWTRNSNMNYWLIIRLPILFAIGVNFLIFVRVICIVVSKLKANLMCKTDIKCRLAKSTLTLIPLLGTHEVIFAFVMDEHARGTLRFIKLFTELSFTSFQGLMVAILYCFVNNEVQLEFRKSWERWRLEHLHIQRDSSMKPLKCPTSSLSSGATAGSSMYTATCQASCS

human GLP-1R [2] = target: T1, human GLP-1R (Homo sapiens, UniProt P43220); experiment: GLP-1R CHO cell β-arrestin recruitment assay; assay type: cell-based; set-up: host or cells: CHO-K1 PathHunter cells, assay-ready frozen; conditions: for hGLP1R B-Arrestin2 % Top: normalized to GLP-1 maximum control
T1 sequence (P43220 24-463): as above
Summary of the method: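 PathHunter CHO-K1 cells with ProLink-tagged human GLP-1R and enzyme-acceptor-tagged β-arrestin-2 treated with serially diluted peptides in assay buffer containing 0.1% hydrolyzed casein, 90 min at 37 °C.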

human Gcg receptor = target: T2, human Gcg receptor (Homo sapiens, UniProt P47871); experiment: [125I]-Glucagon binding (SPA), human Gcg receptor
T2 construct: expressed in transfected cells; crude membranes
T2 sequence (P47871 26-477): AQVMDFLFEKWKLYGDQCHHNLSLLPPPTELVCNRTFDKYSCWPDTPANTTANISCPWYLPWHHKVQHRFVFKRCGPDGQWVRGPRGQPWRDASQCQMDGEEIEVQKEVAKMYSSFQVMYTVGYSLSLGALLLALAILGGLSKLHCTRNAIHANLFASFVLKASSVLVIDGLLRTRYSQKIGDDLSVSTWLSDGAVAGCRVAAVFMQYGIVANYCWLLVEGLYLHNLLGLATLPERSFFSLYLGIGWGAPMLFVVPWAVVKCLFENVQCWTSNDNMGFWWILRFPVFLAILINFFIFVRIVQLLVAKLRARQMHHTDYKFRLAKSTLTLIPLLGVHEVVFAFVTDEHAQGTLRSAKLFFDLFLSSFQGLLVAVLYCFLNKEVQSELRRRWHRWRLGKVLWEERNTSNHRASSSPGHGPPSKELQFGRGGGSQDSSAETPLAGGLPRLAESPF
Summary of the method: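 Scintillation counts are taken after membranes and WGA beads incubate and settle for 12 hours at room temperature. Buffer is 25 mM HEPES, pH 7.4, with CaCl2, MgCl2, bacitracin and Tween-20. Ki values, from four-parameter IC50 fits, are geometric means over independent days.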

human GLP-1R [3] = target: T1, human GLP-1R; experiment: GLP-1R HEK293 cell membrane [35S]GTPγS binding assay; assay type: biochemical; set-up: expressed in transfected cells; host or cells: HEK293 cells expressing human GLP-1R; membranes
Summary of the method: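 Membranes from HEK293 cells expressing the receptor incubated with peptide and […] [35S]GTPγS in HEPES pH 7.4 buffer with NaCl, MgCl2, saponin and BSA, 30 min at room temperature. Gαs-bound label captured by anti-Gαs antibody/SPA beads and counted; EC50 from four-parameter logistic fit.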

[4] = target: T3, gastric inhibitory peptide receptor (GIPR) (Homo sapiens, UniProt P48546); experiment: cAMP pharmacological functional assay in presence of casein, hGIPR; assay type: cell-based
T3 sequence (P48546 22-466): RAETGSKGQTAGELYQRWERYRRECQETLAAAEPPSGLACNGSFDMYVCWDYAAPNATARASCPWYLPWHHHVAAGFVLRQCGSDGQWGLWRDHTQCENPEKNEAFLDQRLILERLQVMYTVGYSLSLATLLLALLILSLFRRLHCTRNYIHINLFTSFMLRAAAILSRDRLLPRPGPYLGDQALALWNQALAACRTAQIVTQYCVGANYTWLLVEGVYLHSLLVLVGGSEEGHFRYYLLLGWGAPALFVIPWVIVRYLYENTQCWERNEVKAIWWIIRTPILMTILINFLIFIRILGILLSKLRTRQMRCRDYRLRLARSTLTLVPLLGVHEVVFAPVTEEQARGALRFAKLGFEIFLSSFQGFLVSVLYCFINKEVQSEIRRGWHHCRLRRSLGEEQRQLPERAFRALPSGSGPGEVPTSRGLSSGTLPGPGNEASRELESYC

[5] = HEK293 cells expressing hGLP-1R, 0.1% Casein, geometric mean, read-out: hGLP1R cAMP Rel EC50 nM (SEM, n)
[6] = CHO-K1 cells, PathHunter β-arrestin-2 recruitment, 0.1% casein, read-out: hGLP1R B-Arrestin2 Rel EC50 uM (SEM, n)
[7] = read-out: hGLcgR Ki, nM (SEM, n)
[8] = HEK293 cell membranes expressing human GLP-1R, [35S]GTPγS binding, read-out: hGLP1R GTPgS Rel EC50 nM (SEM, n)
[9] = HEK293 cells expressing hGIPR, 0.1% Casein, geometric mean, read-out: hGIPR cAMP Rel EC50 nM (SEM, n)

| SMILES | EC50 [1] [nM] | EC50 (human GLP-1R [2]) [µM] | hGLP1R B-Arrestin2 % Top (human GLP-1R [2]) [%] | Ki (human Gcg receptor) [nM] | EC50 (human GLP-1R [3]) [nM] | EC50 [4] [nM] | EC50 [1, 5] [nM] | EC50 (human GLP-1R [2]; [6]) [µM] | Ki (human Gcg receptor; [7]) [nM] | EC50 (human GLP-1R [3]; [8]) [nM] | EC50 [4, 9] [nM] |
| --- | --- | --- | --- | --- | --- | --- | --- | --- | --- | --- | --- |
| CC[C@H](C)[C@H](NC(=O)[C@H](CC(C)C)NC(=O)[C@H](Cc1ccc(O)cc1)NC(=O)[C@@H](CCC(=O)O)NC(=O)[C@@H](NC(=O)[C@H](Cc1ccccc1)NC(=O)[C@H](CCC(=O)O)NC(=O)C(C)(C)NC(=O)[C@H](CCC(N)=O)NC(=O)[C@H](C)NC(=O)[C@H](CCCCNC(=O)COCCOCCNC(=O)COCCOCCNC(=O)CC[C@H](NC(=O)CCCCCCCCCCCCCCCCC(=O)O)C(=O)O)NC(=O)[C@H](CCCN)NC(=O)[C@H](CC(=O)O)NC(=O)[C@H](CC(C)C)NC(=O)[C@](C)(CC(C)C)NC(=O)[C@@H](NC(=O)[C@H](CO)NC(=O)[C@H](Cc1ccc(O)cc1)NC(=O)[C@H](CC(=O)O)NC(=O)[C@H](CO)NC(=O)[C@@H](NC(=O)[C@](C)(Cc1ccccc1F)NC(=O)[C@@H](NC(=O)CNC(=O)[C@H](CCC(=O)O)NC(=O)C(C)(C)NC(=O)[C@@H](N)Cc1ccc(O)cc1)[C@@H](C)O)[C@@H](C)O)[C@@H](C)CC)[C@@H](C)CC)C(=O)N[C@@H](CCC(=O)O)C(=O)NCC(=O)NCC(=O)N1CCC[C@H]1C(=O)N[C@@H](CO)C(=O)N[C@@H](CO)C(=O)NCC(=O)N[C@@H](C)C(=O)N1CCC[C@H]1C(=O)N1CCC[C@H]1C(=O)N1CCC[C@H]1C(=O)N[C@@H](CO)C(N)=O [Example 2] (H-Y[Aib]EGT[αMePhe(2-F)]TSDYSI[αMeL]LD[Orn]K([AEEA-AEEA-γGlu-C18 diacid])AQ[Aib]EFI[dE]YLIEGGPSSGAPPPS-NH2; N-terminus assumed) | 0.0441 | 0.00882 | 96.1 | 361 | 0.642 | 0.0339 |  |  |  |  |  |
| CC[C@H](C)[C@H](NC(=O)[C@H](CC(C)C)NC(=O)[C@](C)(Cc1ccc(O)cc1)NC(=O)[C@@H](CCC(=O)O)NC(=O)[C@@H](NC(=O)[C@H](Cc1ccccc1)NC(=O)[C@H](CCC(=O)O)NC(=O)C(C)(C)NC(=O)[C@H](CCC(N)=O)NC(=O)[C@H](C)NC(=O)[C@H](CCCCNC(=O)COCCOCCNC(=O)COCCOCCNC(=O)CC[C@H](NC(=O)CCCCCCCCCCCCCCCCC(=O)O)C(=O)O)NC(=O)[C@H](CCCN)NC(=O)[C@H](CC(=O)O)NC(=O)[C@H](CC(C)C)NC(=O)[C@](C)(CC(C)C)NC(=O)[C@@H](NC(=O)[C@H](CO)NC(=O)[C@H](Cc1ccncc1)NC(=O)[C@H](CC(=O)O)NC(=O)[C@H](CO)NC(=O)[C@@H](NC(=O)[C@](C)(Cc1ccccc1F)NC(=O)[C@@H](NC(=O)CNC(=O)[C@H](CCC(=O)O)NC(=O)C(C)(C)NC(=O)[C@@H](N)Cc1ccc(O)cc1)[C@@H](C)O)[C@@H](C)O)[C@@H](C)CC)[C@@H](C)CC)C(=O)N[C@@H](CCC(=O)O)C(=O)NCC(=O)NCC(=O)N1CCC[C@H]1C(=O)N[C@@H](CO)C(=O)N[C@@H](CO)C(=O)NCC(=O)N[C@@H](C)C(=O)N1CCC[C@H]1C(=O)N1CCC[C@H]1C(=O)N1CCC[C@H]1C(=O)N[C@@H](CO)C(N)=O [Example 4] | 0.0297 | 0.0048 | 92.4 | 686 | 0.245 | 0.0272 |  |  |  |  |  |
| CC[C@H](C)[C@H](NC(=O)[C@H](CC(C)C)NC(=O)[C@H](Cc1ccc(O)cc1)NC(=O)[C@H](CCC(=O)O)NC(=O)[C@@H](NC(=O)[C@H](Cc1ccccc1)NC(=O)[C@H](C)NC(=O)C(C)(C)NC(=O)[C@H](CCC(N)=O)NC(=O)[C@H](C)NC(=O)[C@H](CCCCNC(=O)COCCOCCNC(=O)COCCOCCNC(=O)CC[C@H](NC(=O)CCCCCCCCCCCCCCCCCCC(=O)O)C(=O)O)NC(=O)[C@H](CCCCN)NC(=O)[C@H](CC(=O)O)NC(=O)[C@H](CC(C)C)NC(=O)[C@H](CC(C)C)NC(=O)[C@@H](NC(=O)[C@H](CO)NC(=O)[C@H](Cc1ccc(O)cc1)NC(=O)[C@H](CC(=O)O)NC(=O)[C@H](CO)NC(=O)[C@@H](NC(=O)[C@H](Cc1ccccc1)NC(=O)[C@@H](NC(=O)CNC(=O)[C@H](CCC(=O)O)NC(=O)C(C)(C)NC(=O)[C@@H](N)Cc1ccc(O)cc1)[C@@H](C)O)[C@@H](C)O)[C@@H](C)CC)[C@@H](C)CC)C(=O)N[C@@H](C)C(=O)NCC(=O)NCC(=O)N1CCC[C@H]1C(=O)N[C@@H](CO)C(=O)N[C@@H](CO)C(=O)NCC(=O)N[C@@H](C)C(=O)N1CCC[C@H]1C(=O)N1CCC[C@H]1C(=O)N1CCC[C@H]1C(=O)N[C@@H](CO)C(N)=O [Example 288] (H-Y[Aib]EGTFTSDYSILLDKK([AEEA-AEEA-γGlu-C20 diacid])AQ[Aib]AFIEYLIAGGPSSGAPPPS-NH2; N-terminus assumed) |  |  | 21.3 |  |  |  | 0.172 | 0.00674 | 345 | 0.666 | 0.0732 |
| CC[C@H](C)[C@H](NC(=O)[C@H](CC(C)C)NC(=O)[C@H](Cc1ccc(O)cc1)NC(=O)[C@H](CCC(=O)O)NC(=O)[C@@H](NC(=O)[C@H](Cc1ccccc1)NC(=O)[C@H](CCC(=O)O)NC(=O)C(C)(C)NC(=O)[C@H](CCC(N)=O)NC(=O)[C@H](C)NC(=O)[C@H](CCCCNC(=O)COCCOCCNC(=O)COCCOCCNC(=O)CC[C@H](NC(=O)CCCCCCCCCCCCCCCCCCC(=O)O)C(=O)O)NC(=O)[C@H](CCCCN)NC(=O)[C@H](CC(=O)O)NC(=O)[C@H](CC(C)C)NC(=O)[C@](C)(CC(C)C)NC(=O)[C@@H](NC(=O)[C@H](CO)NC(=O)[C@H](Cc1ccc(O)cc1)NC(=O)[C@H](CC(=O)O)NC(=O)[C@H](CO)NC(=O)[C@@H](NC(=O)[C@H](Cc1ccccc1)NC(=O)[C@@H](NC(=O)CNC(=O)[C@H](CCC(=O)O)NC(=O)C(C)(C)NC(=O)[C@@H](N)Cc1ccc(O)cc1)[C@@H](C)O)[C@@H](C)O)[C@@H](C)CC)[C@@H](C)CC)C(=O)N[C@@H](C)C(=O)NCC(=O)NCC(=O)N1CCC[C@H]1C(=O)N[C@@H](CO)C(=O)N[C@@H](CO)C(=O)NCC(=O)N[C@@H](C)C(=O)N1CCC[C@H]1C(=O)N1CCC[C@H]1C(=O)N1CCC[C@H]1C(=O)N[C@@H](CO)C(N)=O [Example 289] (H-Y[Aib]EGTFTSDYSI[αMeL]LDKK([AEEA-AEEA-γGlu-C20 diacid])AQ[Aib]EFIEYLIAGGPSSGAPPPS-NH2) |  |  | 51.3 |  |  |  | 0.0544 | 0.0124 | > 1050 | 0.404 | 0.0228 |
| CC[C@H](C)[C@H](NC(=O)[C@H](CC(C)C)NC(=O)[C@H](Cc1ccc(O)cc1)NC(=O)[C@H](CCC(=O)O)NC(=O)[C@@H](NC(=O)[C@H](Cc1ccccc1)NC(=O)[C@H](C)NC(=O)C(C)(C)NC(=O)[C@H](CCC(N)=O)NC(=O)[C@H](C)NC(=O)[C@H](CCCCNC(=O)COCCOCCNC(=O)COCCOCCNC(=O)CC[C@H](NC(=O)CCCCCCCCCCCCCCCCC(=O)O)C(=O)O)NC(=O)[C@H](CCCCN)NC(=O)[C@H](CC(=O)O)NC(=O)[C@H](CC(C)C)NC(=O)[C@H](CC(C)C)NC(=O)[C@@H](NC(=O)[C@H](CO)NC(=O)[C@H](Cc1ccc(O)cc1)NC(=O)[C@H](CC(=O)O)NC(=O)[C@H](CO)NC(=O)[C@@H](NC(=O)[C@](C)(Cc1ccccc1)NC(=O)[C@@H](NC(=O)CNC(=O)[C@H](CCC(=O)O)NC(=O)C(C)(C)NC(=O)[C@@H](N)Cc1ccc(O)cc1)[C@@H](C)O)[C@@H](C)O)[C@@H](C)CC)[C@@H](C)CC)C(=O)N[C@@H](CCC(=O)O)C(=O)NCC(=O)NCC(=O)N1CCC[C@H]1C(=O)N[C@@H](CO)C(=O)N[C@@H](CO)C(=O)NCC(N)=O [Example 301] (H-Y[Aib]EGT[αMeF]TSDYSILLDKK([AEEA-AEEA-γGlu-C18 diacid])AQ[Aib]AFIEYLIEGGPSSG-NH2) |  |  | 93.7 |  |  |  | 0.0441 | 0.00267 | 44.4 | 0.435 | 0.0346 |
